Reference: patent US20090311217A1, “3-SUBSTITUTED-1H-INDOLE COMPOUNDS, THEIR USE AS MTOR KINASE AND PI3 KINASE INHIBITORS, AND THEIR SYNTHESES” (priority 2008, published 2009)
Where two headings read alike, the source gives them in different places.

Legend:
PI3K-alpha = PI3K-alpha (Homo sapiens, UniProt P42336); test: PI3K-alpha fluorescence polarization assay; assay type: biochemical
human TOR = target: T1, human TOR (Homo sapiens, UniProt P42345); test: mTOR enzyme assay (DELFIA, His6-S6K substrate); assay type: biochemical; conditions: read-out: mTOR Kinase Avg. IC50
T1 construct: FLAG

Sequence of PI3K-alpha (P42336 whole entry, species assumed): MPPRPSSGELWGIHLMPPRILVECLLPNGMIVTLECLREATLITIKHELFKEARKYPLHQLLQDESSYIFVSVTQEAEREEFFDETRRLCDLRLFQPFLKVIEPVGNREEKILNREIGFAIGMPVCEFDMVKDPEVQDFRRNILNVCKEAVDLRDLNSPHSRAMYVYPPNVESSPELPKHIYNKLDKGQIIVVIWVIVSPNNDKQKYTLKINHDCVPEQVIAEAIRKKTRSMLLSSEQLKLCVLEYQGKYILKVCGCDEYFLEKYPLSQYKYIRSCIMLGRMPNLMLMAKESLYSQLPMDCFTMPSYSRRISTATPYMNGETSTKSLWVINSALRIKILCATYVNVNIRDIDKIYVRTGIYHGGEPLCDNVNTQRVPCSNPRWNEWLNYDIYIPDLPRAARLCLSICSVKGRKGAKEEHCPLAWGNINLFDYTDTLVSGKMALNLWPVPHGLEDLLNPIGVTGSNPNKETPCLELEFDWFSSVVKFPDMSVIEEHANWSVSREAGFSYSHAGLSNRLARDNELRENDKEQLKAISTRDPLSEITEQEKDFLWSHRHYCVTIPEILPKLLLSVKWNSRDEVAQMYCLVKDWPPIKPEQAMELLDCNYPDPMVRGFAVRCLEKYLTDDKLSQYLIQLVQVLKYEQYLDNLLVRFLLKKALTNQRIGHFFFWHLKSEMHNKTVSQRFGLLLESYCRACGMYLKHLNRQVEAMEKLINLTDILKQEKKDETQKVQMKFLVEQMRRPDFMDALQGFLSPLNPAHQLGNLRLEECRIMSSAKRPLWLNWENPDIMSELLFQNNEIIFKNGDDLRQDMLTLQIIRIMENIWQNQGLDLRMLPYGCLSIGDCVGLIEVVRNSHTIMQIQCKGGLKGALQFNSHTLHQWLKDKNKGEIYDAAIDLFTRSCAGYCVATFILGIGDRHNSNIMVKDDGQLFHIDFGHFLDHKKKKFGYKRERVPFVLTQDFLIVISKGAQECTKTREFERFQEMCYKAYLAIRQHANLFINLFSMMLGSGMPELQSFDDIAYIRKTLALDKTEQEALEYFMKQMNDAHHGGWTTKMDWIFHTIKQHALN
Sequence of PI3K-alpha (P27986 whole entry partner, species assumed): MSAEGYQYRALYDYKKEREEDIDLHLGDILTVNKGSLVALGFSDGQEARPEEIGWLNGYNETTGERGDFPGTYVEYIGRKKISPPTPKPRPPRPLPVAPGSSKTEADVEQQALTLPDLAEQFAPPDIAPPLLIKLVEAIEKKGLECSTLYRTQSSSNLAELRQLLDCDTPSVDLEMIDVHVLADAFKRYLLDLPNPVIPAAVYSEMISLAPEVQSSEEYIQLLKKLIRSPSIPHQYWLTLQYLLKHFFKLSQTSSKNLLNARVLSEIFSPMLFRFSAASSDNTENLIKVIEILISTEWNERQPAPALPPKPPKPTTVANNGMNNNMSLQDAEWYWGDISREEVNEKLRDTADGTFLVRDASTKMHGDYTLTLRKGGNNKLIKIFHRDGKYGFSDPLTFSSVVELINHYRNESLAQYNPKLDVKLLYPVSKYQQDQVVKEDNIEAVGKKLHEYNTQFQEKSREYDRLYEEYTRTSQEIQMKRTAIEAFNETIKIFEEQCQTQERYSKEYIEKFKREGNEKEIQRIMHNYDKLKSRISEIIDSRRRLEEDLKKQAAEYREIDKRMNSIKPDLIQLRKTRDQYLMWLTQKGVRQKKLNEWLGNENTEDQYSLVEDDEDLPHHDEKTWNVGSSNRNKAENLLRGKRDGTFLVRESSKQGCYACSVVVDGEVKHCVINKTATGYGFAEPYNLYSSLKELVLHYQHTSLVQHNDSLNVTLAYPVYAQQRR

Compound | IC50 (PI3K-alpha; read-out: PI3Kα Avg. IC50) [µM] | IC50 (human TOR) [µM] | IC50 (PI3K-alpha; PI3Kα Avg. IC50) [µM]
O=C1C(=Cc2c(-c3ccc(Cl)cc3)[nH]c3ccccc23)Oc2cccc(O)c21 [Example 76, 2-{[2-(4-chlorophenyl)-1H-indol-3-yl]methylene}-4-hydroxy-1-benzofuran-3(2H)-one] | > 10 | 10 | –
Cc1[nH]c2ccccc2c1/C=C1\Oc2cc(O)cc(O)c2C1=O [Example 47, (2Z)-4,6-dihydroxy-2-[(2-methyl-1H-indol-3-yl)methylene]-1-benzofuran-3(2H)-one] | – | 0.5 | 3.2
Cc1[nH]c2c(Br)cccc2c1C=C1Oc2cc(O)cc(O)c2C1=O [Example 217, 2-[(7-bromo-2-methyl-1H-indol-3-yl)methylene]-4,6-dihydroxy-1-benzofuran-3(2H)-one] | 1.42 | 2.4 | –
Cn1cc(C=C2Oc3cc(O)cc(O)c3C2=O)c2c(O)cccc21 [Example 254, 4,6-dihydroxy-2-[(4-hydroxy-1-methyl-1H-indol-3-yl)methylene]-1-benzofuran-3(2H)-one] | 1.66 | 0.65 | –
N#CCCCn1cc(C=C2Oc3cc(O)cc(O)c3C2=O)c2c(C#N)cccc21 [Example 264, 1-(3-cyanopropyl)-3-[(4,6-dihydroxy-3-oxo-1-benzofuran-2(3H)-ylidene)methyl]-1H-indole-4-carbonitrile] | 3.93 | 1.7 | –
O=C1C(=Cc2c[nH]c3cc([N+](=O)[O-])ccc23)Oc2cc(O)cc(O)c21 [Example 179, 4,6-dihydroxy-2-[(6-nitro-1H-indol-3-yl)methylene]-1-benzofuran-3(2H)-one] | 2.47 | 16 | –
Cn1cc(C=C2Oc3cc(O)cc(O)c3C2=O)c2c(Cl)cccc21 [Example 252, 2-[(4-chloro-1-methyl-1H-indol-3-yl)methylene]-4,6-dihydroxy-1-benzofuran-3(2H)-one] | 0.555 | 1.5 | –
O=C1C(=Cc2c[nH]c3cc4c(cc23)OCO4)Oc2cc(O)cc(O)c21 [Example 168, 2-(5H-[1,3]dioxolo[4,5-f]indol-7-ylmethylene)-4,6-dihydroxy-1-benzofuran-3(2H)-one] | 6.54 | > 20 | –
O=C1C(=Cc2c[nH]c3c([N+](=O)[O-])cccc23)Oc2cc(O)cc(O)c21 [Example 180, 4,6-dihydroxy-2-[(7-nitro-1H-indol-3-yl)methylene]-1-benzofuran-3(2H)-one] | 3.12 | > 20 | –
COC(=O)c1cccc2c1c(C=C1Oc3cc(O)cc(O)c3C1=O)cn2C [Example 267, methyl 3-[(4,6-dihydroxy-3-oxo-1-benzofuran-2(3H)-ylidene)methyl]-1-methyl-1H-indole-4-carboxylate] | 2.06 | 0.086 | –
Cn1cc(C=C2Oc3cc(O)cc(O)c3C2=O)c2ccc(C(F)(F)F)cc21 [Example 237, 4,6-dihydroxy-2-{[1-methyl-6-(trifluoromethyl)-1H-indol-3-yl]methylene}-1-benzofuran-3(2H)-one] | 2.48 | > 20 | –
COc1ccc(-c2cccc3c2c(/C=C2\Oc4cc(O)cc(O)c4C2=O)cn3C)cn1 [Example 369, (2Z)-4,6-Dihydroxy-2-{[4-(6-methoxypyridin-3-yl)-1-methyl-1H-indol-3-yl]methylene}-1-benzofuran-3(2H)-one] | 1.05 | 0.0845 | –
O=C1C(=Cc2c[nH]c3c(Br)cccc23)Oc2cc(O)cc(O)c21 [Example 244, 2-[(7-bromo-1H-indol-3-yl)methylene]-4,6-dihydroxy-1-benzofuran-3(2H)-one] | 1.96 | 18 | –
O=C1/C(=C/c2c[nH]c3ccc(Cl)cc23)Oc2c1ccc(O)c2O [Example 63, (2Z)-2-[(5-chloro-1H-indol-3-yl)methylene]-6,7-dihydroxy-1-benzofuran-3(2H)-one] | 0.431 | > 20 | –
Cn1cc(C=C2Oc3cc(O)cc(O)c3C2=O)c2cccc(Br)c21 [Example 249, 2-[(7-bromo-1-methyl-1H-indol-3-yl)methylene]-4,6-dihydroxy-1-benzofuran-3(2H)-one] | 4.81 | > 20 | –
COc1ccc2c(c(C=C3Oc4cc(O)cc(O)c4C3=O)cn2C)c1C [Example 236, 4,6-dihydroxy-2-[(5-methoxy-1,4-dimethyl-1H-indol-3-yl)methylene]-1-benzofuran-3(2H)-one] | 1.47 | 1.6 | –
CC(=O)Nc1ccc2[nH]c(C)c(C=C3Oc4cc(O)cc(O)c4C3=O)c2c1 [Example 216, N-{3-[(4,6-dihydroxy-3-oxo-1-benzofuran-2(3H)-ylidene)methyl]-2-methyl-1H-indol-5-yl}acetamide] | 9.5 | 11.5 | –
Cc1c(C=C2Oc3cc(O)cc(O)c3C2=O)c2cccc(Br)c2n1C [Example 234, 2-[(7-bromo-1,2-dimethyl-1H-indol-3-yl)methylene]-4,6-dihydroxy-1-benzofuran-3(2H)-one] | > 10 | 14 | –

More lines, main results first:

IC50 (PI3K-alpha; read-out: PI3Kα Avg. IC50) [µM] | IC50 (human TOR) [µM] | Compound | IC50 (PI3K-alpha; PI3Kα Avg. IC50) [µM]
4.91 | 2.55 | CCCn1c(-c2ccccc2)c(C=C2Oc3cc(O)cc(O)c3C2=O)c2ccccc21 [Example 214, 4,6-dihydroxy-2-[(2-phenyl-1-propyl-1H-indol-3-yl)methylene]-1-benzofuran-3(2H)-one] | –
1.58 | 2.9 | O=C1C(=Cc2c(-c3ccccc3)n(Cc3cccnc3)c3ccccc23)Oc2cc(O)cc(O)c21 [Example 153, 4,6-dihydroxy-2-{[2-phenyl-1-(pyridin-3-ylmethyl)-1H-indol-3-yl]methylene}-1-benzofuran-3(2H)-one] | –
2.42 | 0.39 | Cn1c(-c2cccc(O)c2)c(C=C2Oc3cc(O)cc(O)c3C2=O)c2ccccc21 [Example 192, 4,6-dihydroxy-2-{[2-(3-hydroxyphenyl)-1-methyl-1H-indol-3-yl]methylene}-1-benzofuran-3(2H)-one] | –
1.68 | 0.26 | N#Cc1cccc2c1c(C=C1Oc3cc(O)cc(O)c3C1=O)cn2Cc1ccncc1 [Example 263, 3-[(4,6-dihydroxy-3-oxo-1-benzofuran-2(3H)-ylidene)methyl]-1-(pyridin-4-ylmethyl)-1H-indole-4-carbonitrile] | –
1.06 | 0.59 | CN(C)c1ccc(-c2[nH]c3ccccc3c2C=C2Oc3cc(O)cc(O)c3C2=O)cc1 [Example 211, 2-({2-[4-(dimethylamino)phenyl]-1H-indol-3-yl}methylene)-4,6-dihydroxy-1-benzofuran-3(2H)-one] | –
4.87 | 4.5 | CN(C)c1ccc(-c2c(C=C3Oc4cc(O)cc(O)c4C3=O)c3ccccc3n2C)cc1 [Example 198, 2-({2-[4-(dimethylamino)phenyl]-1-methyl-1H-indol-3-yl}methylene)-4,6-dihydroxy-1-benzofuran-3(2H)-one] | –
1.05 | 0.48 | O=C1C(=Cc2c[nH]c3cccc(OCc4ccccc4)c23)Oc2cc(O)cc(O)c21 [Example 243, 2-{[4-(benzyloxy)-1H-indol-3-yl]methylene}-4,6-dihydroxy-1-benzofuran-3(2H)-one] | –
1.58 | 0.54 | O=C1C(=Cc2c(-c3ccccc3)n(Cc3ccncc3)c3ccccc23)Oc2cc(O)cc(O)c21 [Example 154, 4,6-dihydroxy-2-{[2-phenyl-1-(pyridin-4-ylmethyl)-1H-indol-3-yl]methylene}-1-benzofuran-3(2H)-one] | –
